The results in this text go back to patent US9580423B2, “Bicyclic heterocycles as FGFR4 inhibitors” (Incyte Corporation, priority 2015, dated 2017).

The target in assay [1] is FGFR1 (Homo sapiens (Human), UniProt P11362). The assay can be described thus: FGFR Enzymatic Assay (FRET peptide phosphorylation), FGFR1. The conditions noted are these: read-out: FGFR1 IC50.
From the text: (§1) The enzymes were purchased from Millipore or Invitrogen.
(§2) GraphPad prism3 was used to analyze the data. The IC50 values were derived by fitting the data to the equation for a sigmoidal dose-response with a variable slope. Y=Bottom+(Top-Bottom)/(1+10^((LogIC50−X)*HillSlope)) where X is the logarithm of concentration and Y is the response.
For assay [2], the target named is FGFR2 (Homo sapiens (Human), UniProt P21802). Nature of the assay: FGFR Enzymatic Assay (FRET peptide phosphorylation), FGFR2.
From the text: as §1, §2
For assay [3], the target named is FGFR3 (Homo sapiens (Human), UniProt P22607). The assay can be described thus: FGFR Enzymatic Assay (FRET peptide phosphorylation), FGFR3.
From the text: as §1, §2
Assay [4] addresses FGFR4 (Homo sapiens (Human), UniProt P22455). The assay can be described thus: FGFR Enzymatic Assay (FRET peptide phosphorylation), FGFR4. The conditions noted are these: for FGFR1/FGFR4 IC50 ratio / FGFR2/FGFR4 IC50 ratio / FGFR3/FGFR4 IC50 ratio: IC50 ratio showing FGFR4 selectivity.
From the text: as §1, §2
Setting [5] is: pre-incubated for 5 to 10 minutes.
The mark [6] stands for this setting: read-out: FGFR2 IC50, pre-incubated for 5 to 10 minutes.
Where [7] appears, read: read-out: FGFR2 IC50, pre-incubated for 4 hours.
The mark [8] stands for this setting: read-out: FGFR3 IC50, pre-incubated for 4 hours.
[9] abbreviates: read-out: FGFR4 IC50, pre-incubated for 5 to 10 minutes.
Setting [10] is: read-out: FGFR4 IC50, pre-incubated for 4 hours.
The mark [11] stands for this setting: FGFR3 IC50 (nM), pre-incubated for 5 to 10 minutes.
The mark [12] stands for this setting: FGFR3 IC50 (nM), pre-incubated for 4 hours.

The structures appear in SMILES notation. Read-outs that look alike come from different tables or passages of the source.

Chain of FGFR1 (P11362 22-822): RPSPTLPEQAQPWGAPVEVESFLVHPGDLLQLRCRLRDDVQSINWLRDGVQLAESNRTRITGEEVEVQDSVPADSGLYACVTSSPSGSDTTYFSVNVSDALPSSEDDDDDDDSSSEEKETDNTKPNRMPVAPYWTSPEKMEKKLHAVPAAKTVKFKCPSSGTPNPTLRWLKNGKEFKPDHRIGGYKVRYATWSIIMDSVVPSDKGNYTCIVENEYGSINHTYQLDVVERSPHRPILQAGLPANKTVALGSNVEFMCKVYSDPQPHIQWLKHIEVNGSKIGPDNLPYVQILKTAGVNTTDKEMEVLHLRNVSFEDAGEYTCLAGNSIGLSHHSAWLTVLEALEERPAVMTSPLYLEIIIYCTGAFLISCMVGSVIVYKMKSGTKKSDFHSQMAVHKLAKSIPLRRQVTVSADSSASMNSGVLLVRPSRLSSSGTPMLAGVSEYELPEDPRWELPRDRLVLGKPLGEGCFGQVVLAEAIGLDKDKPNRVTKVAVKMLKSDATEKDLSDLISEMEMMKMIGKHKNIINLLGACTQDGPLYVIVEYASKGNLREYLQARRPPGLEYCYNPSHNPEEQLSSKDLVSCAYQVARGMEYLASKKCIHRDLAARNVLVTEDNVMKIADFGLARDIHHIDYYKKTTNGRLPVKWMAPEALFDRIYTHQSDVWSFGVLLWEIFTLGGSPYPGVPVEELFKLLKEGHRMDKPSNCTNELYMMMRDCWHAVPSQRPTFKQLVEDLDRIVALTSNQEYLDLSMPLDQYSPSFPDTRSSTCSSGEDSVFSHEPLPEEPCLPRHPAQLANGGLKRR
Chain of FGFR4 (P22455 22-802): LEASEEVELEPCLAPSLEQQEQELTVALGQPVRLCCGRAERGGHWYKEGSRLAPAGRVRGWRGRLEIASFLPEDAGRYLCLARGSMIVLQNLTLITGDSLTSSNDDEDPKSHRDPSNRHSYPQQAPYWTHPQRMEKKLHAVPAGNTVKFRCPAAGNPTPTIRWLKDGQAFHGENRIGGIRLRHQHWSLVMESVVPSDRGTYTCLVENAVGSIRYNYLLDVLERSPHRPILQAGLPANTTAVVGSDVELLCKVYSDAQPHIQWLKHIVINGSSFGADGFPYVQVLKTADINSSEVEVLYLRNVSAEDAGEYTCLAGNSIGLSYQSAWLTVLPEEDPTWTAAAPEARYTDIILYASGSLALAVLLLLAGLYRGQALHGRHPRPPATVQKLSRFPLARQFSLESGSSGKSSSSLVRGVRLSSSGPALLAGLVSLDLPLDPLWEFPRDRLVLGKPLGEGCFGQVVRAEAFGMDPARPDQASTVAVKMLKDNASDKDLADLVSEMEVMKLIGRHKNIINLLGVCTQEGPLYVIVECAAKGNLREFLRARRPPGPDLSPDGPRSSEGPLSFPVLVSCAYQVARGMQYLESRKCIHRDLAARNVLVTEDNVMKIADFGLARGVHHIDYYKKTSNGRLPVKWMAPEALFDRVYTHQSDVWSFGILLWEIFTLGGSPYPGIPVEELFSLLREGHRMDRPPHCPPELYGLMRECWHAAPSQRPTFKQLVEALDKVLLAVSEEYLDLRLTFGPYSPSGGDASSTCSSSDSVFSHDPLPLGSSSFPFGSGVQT
Chain of FGFR2 (P21802 22-821): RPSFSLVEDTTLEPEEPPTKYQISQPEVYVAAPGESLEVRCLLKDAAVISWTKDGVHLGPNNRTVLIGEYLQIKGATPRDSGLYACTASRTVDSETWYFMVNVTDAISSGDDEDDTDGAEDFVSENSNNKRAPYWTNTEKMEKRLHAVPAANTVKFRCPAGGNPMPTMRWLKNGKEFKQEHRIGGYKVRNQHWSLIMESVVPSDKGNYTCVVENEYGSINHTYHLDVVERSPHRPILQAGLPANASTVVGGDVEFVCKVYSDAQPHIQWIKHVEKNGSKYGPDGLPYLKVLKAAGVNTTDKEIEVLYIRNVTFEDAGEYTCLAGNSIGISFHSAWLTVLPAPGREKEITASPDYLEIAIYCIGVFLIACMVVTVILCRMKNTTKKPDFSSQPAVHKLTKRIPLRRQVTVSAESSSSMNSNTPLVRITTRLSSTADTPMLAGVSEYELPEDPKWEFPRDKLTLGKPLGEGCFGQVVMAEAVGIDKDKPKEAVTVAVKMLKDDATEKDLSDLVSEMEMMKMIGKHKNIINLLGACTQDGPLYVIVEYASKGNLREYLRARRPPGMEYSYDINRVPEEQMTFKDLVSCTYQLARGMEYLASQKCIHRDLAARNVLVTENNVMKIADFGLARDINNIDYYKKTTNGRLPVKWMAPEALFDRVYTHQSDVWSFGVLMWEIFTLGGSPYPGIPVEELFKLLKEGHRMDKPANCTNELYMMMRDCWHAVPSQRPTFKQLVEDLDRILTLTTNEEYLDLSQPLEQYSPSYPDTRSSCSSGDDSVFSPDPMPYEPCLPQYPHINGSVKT
Chain of FGFR3 (P22607 23-806): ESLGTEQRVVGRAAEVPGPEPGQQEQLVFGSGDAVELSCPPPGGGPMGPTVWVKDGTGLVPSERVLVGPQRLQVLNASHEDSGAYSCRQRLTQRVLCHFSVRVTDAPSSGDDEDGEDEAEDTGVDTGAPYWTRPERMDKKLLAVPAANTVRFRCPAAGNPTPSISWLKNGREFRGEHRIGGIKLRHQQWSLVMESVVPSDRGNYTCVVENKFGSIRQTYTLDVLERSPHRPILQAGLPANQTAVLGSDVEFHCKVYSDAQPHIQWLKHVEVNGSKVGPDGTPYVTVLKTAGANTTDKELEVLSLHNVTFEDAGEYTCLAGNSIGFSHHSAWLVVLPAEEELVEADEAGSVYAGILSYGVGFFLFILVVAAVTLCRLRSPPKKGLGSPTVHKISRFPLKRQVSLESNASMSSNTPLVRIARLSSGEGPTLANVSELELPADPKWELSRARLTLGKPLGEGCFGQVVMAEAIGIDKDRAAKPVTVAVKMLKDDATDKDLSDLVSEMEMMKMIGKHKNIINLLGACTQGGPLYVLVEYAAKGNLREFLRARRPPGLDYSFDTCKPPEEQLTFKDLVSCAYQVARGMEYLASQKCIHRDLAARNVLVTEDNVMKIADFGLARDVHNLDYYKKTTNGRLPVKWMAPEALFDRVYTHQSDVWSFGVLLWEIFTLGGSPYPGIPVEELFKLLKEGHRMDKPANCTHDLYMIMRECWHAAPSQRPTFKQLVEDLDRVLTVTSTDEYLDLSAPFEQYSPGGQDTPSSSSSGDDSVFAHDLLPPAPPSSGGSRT

Regarding `C=CC(=O)Nc1cc(-c2cc3c(cn2)CN(c2c(F)c(OC)cc(OC)c2F)C(=O)C32CC2)cc(N2CCOCC2)c1` [Example 10, N-{3-[2′-(2,6-difluoro-3,5-dimethoxyphenyl)-3′-oxo-2′,3′-dihydro-1′H-spiro[cyclopropane-1,4′-[2,7]naphthyridin]-6′-yl]-5-morpholin-4-ylphenyl}acrylamide], the IC50 in assay [1] (setting [5]) was greater than 0.2 µM; in assay [1] (pre-incubated for 4 hours), greater than 0.2 µM; in assay [2] (setting [6]), greater than 0.2 µM; in assay [2] (setting [7]) it was greater than 0.2 µM; in assay [3] (read-out: FGFR3 IC50, pre-incubated for 5 to 10 minutes), greater than 200 nM; in assay [3] (setting [8]), greater than 200 nM. Besides, the IC50 in assay [4] (setting [9]) and in assay [4] (setting [10]) was less than 0.01 µM throughout. Further, the “FGFR1/FGFR4 IC50 ratio” value in assay [4] (setting [5]) and in assay [4] (pre-incubated for 4 hours) was greater than 100 throughout. Also, the “FGFR2/FGFR4 IC50 ratio” value in assay [4] (setting [5]) and in assay [4] (pre-incubated for 4 hours) was greater than 100 each time. Besides, the “FGFR3/FGFR4 IC50 ratio” value in assay [4] (setting [5]) and in assay [4] (pre-incubated for 4 hours) was greater than 100 throughout.
For the compound `C=CC(=O)Nc1cnn(C[C@@H]2CCOC2)c1-c1cc2c(cn1)CN(c1c(F)c(OC)cc(OC)c1F)C(=O)C21CC1` [Example 28, (S)-N-(5-(2′-(2,6-difluoro-3,5-dimethoxyphenyl)-3′-oxo-2′,3′-dihydro-1′H-spiro[cyclopropane-1,4′-[2,7]naphthyridine]-6′-yl)-1-((tetrahydrofuran-3-yl)methyl)-1H-pyrazol-4-yl)acrylamide], the IC50 in assay [1] (pre-incubated for 4 hours) is greater than 0.2 µM; in assay [2] (setting [7]), greater than 0.2 µM; in assay [3] (setting [8]) it was greater than 200 nM; in assay [4], 0.01 to 0.03 µM. Also, the “FGFR1/FGFR4 IC50 ratio” value in assay [4] (pre-incubated for 4 hours) is greater than 100. Also, the “FGFR2/FGFR4 IC50 ratio” value in assay [4] (pre-incubated for 4 hours) is on record as greater than 100. The “FGFR3/FGFR4 IC50 ratio” value in assay [4] (pre-incubated for 4 hours) is recorded as greater than 100.
Regarding `C=CC(=O)Nc1cnn(Cc2ccon2)c1-c1cc2c(cn1)CN(c1c(F)c(OC)cc(OC)c1F)C(=O)C21CC1` [Example 25, N-(5-(2′-(2,6-difluoro-3,5-dimethoxyphenyl)-3′-oxo-2′,3′-dihydro-1′H-spiro[cyclopropane-1,4′-[2,7]naphthyridine]-6′-yl)-1-(isoxazol-3-ylmethyl)-1H-pyrazol-4-yl)acrylamide], the IC50 in assay [1] (pre-incubated for 4 hours) was greater than 0.2 µM; in assay [2] (setting [7]) it was greater than 0.2 µM; in assay [3] (setting [8]), greater than 200 nM; in assay [4] (setting [10]), less than 0.01 µM. The “FGFR1/FGFR4 IC50 ratio” value in assay [4] (pre-incubated for 4 hours) was greater than 100. Moreover, the “FGFR2/FGFR4 IC50 ratio” value in assay [4] (pre-incubated for 4 hours) is on record as greater than 100. The “FGFR3/FGFR4 IC50 ratio” value in assay [4] (pre-incubated for 4 hours) is greater than 100.
Consider `C=CC(=O)N(C)c1cccc(-c2cc3c(cn2)CN(c2c(F)c(OC)cc(OC)c2F)C(=O)C32CC2)c1` [Example 9, N-(3-(2′-(2,6-difluoro-3,5-dimethoxyphenyl)-3′-oxo-2′,3′-dihydro-1′H-spiro[cyclopropane-1,4′-[2,7]naphthyridine]-6′-yl)phenyl)-N-methylacrylamide], for which the IC50 is 0.03 to 0.2 µM in assay [2]; 0.03 to 0.2 µM in assay [2] (setting [6]); 10 to 30 nM in assay [3] (setting [11]); 10 to 30 nM in assay [3] (setting [12]); less than 0.01 µM in assay [4] (setting [9]); less than 0.01 µM in assay [4] (setting [10]).
Consider `C=CC(=O)Nc1cnn(CCOCC)c1-c1cc2c(cn1)CN(c1c(F)c(OC)cc(OC)c1F)C(=O)C21CC1` [Example 16, N-(5-(2′-(2,6-difluoro-3,5-dimethoxyphenyl)-3′-oxo-2′,3′-dihydro-1′H-spiro[cyclopropane-1,4′-[2,7]naphthyridine]-6′-yl)-1-(2-ethoxyethyl)-1H-pyrazol-4-yl)acrylamide], for which the IC50 in assay [1] (pre-incubated for 4 hours) is greater than 0.2 µM; in assay [2] (setting [7]), greater than 0.2 µM; in assay [3] (setting [8]), greater than 200 nM; in assay [4] (setting [10]), less than 0.01 µM. Besides, the “FGFR1/FGFR4 IC50 ratio” value in assay [4] (pre-incubated for 4 hours) is greater than 100. Also, the “FGFR2/FGFR4 IC50 ratio” value in assay [4] (pre-incubated for 4 hours) is listed as greater than 100. In addition, in assay [4] (pre-incubated for 4 hours), the “FGFR3/FGFR4 IC50 ratio” value is listed as greater than 100.
In the case of `C=CC(=O)Nc1cnn(Cc2ccnn2C)c1-c1cc2c(cn1)CN(c1c(F)c(OC)cc(OC)c1F)C(=O)C21CC1` [Example 26, N-(5-(2′-(2,6-difluoro-3,5-dimethoxyphenyl)-3′-oxo-2′,3′-dihydro-1′H-spiro[cyclopropane-1,4′-[2,7]naphthyridine]-6′-yl)-1-((1-methyl-1H-pyrazol-5-yl)methyl)-1H-pyrazol-4-yl)acrylamide], the IC50 is greater than 0.2 µM in assay [1] (pre-incubated for 4 hours), greater than 0.2 µM in assay [2] (setting [7]), greater than 200 nM in assay [3] (setting [8]) and 0.01 to 0.03 µM in assay [4]. Also, the “FGFR1/FGFR4 IC50 ratio” value in assay [4] (pre-incubated for 4 hours) is listed as greater than 100. Further, the “FGFR2/FGFR4 IC50 ratio” value in assay [4] (pre-incubated for 4 hours) is listed as greater than 50. Moreover, the “FGFR3/FGFR4 IC50 ratio” value in assay [4] (pre-incubated for 4 hours) was greater than 100.
For `C=CC(=O)Nc1cn(CC(=O)N(C)C)nc1-c1cc2c(cn1)CN(c1c(F)c(OC)cc(OC)c1F)C(=O)C21CC1` [Example 36, N-(3-(2′-(2,6-difluoro-3,5-dimethoxyphenyl)-3′-oxo-2′,3′-dihydro-1′H-spiro[cyclopropane-1,4′-[2,7]naphthyridine]-6′-yl)-1-(2-(dimethylamino)-2-oxoethyl)-1H-pyrazol-4-yl)acrylamide], the IC50 in assay [1] (pre-incubated for 4 hours) was greater than 0.2 µM; in assay [2] (setting [7]), greater than 0.2 µM; in assay [3] (setting [8]), greater than 200 nM; in assay [4] (setting [10]), less than 0.01 µM. Also, the “FGFR1/FGFR4 IC50 ratio” value in assay [4] (pre-incubated for 4 hours) is recorded as greater than 100. Moreover, the “FGFR2/FGFR4 IC50 ratio” value in assay [4] (pre-incubated for 4 hours) is on record as greater than 100. In addition, the “FGFR3/FGFR4 IC50 ratio” value in assay [4] (pre-incubated for 4 hours) is greater than 100.
For `C=CC(=O)Nc1ccc(C)c(-c2ncc3c(n2)C2(CC2)C(=O)N(c2c(F)c(OC)cc(OC)c2F)C3)c1` [Example 37, N-(3-(6′-(2,6-difluoro-3,5-dimethoxyphenyl)-7′-oxo-6′,7′-dihydro-5′H-spiro[cyclopropane-1,8′-pyrido[4,3-d]pyrimidine]-2′-yl)-4-methylphenyl)acrylamide], the IC50 in assay [1] (pre-incubated for 4 hours) was greater than 0.2 µM; in assay [2] (setting [7]), greater than 0.2 µM; in assay [3] (setting [8]), greater than 200 nM; in assay [4] (setting [10]) it was less than 0.01 µM. In addition, in assay [4] (pre-incubated for 4 hours), the “FGFR1/FGFR4 IC50 ratio” value was greater than 100. The “FGFR2/FGFR4 IC50 ratio” value in assay [4] (pre-incubated for 4 hours) was greater than 100. Besides, in assay [4] (pre-incubated for 4 hours), the “FGFR3/FGFR4 IC50 ratio” value is greater than 100.
Consider `C=CC(=O)Nc1cnn(Cc2ncn(C)n2)c1-c1cc2c(cn1)CN(c1c(F)c(OC)cc(OC)c1F)C(=O)C21CC1` [Example 23, N-(5-(2′-(2,6-difluoro-3,5-dimethoxyphenyl)-3′-oxo-2′,3′-dihydro-1′H-spiro[cyclopropane-1,4′-[2,7]naphthyridine]-6′-yl)-1-((1-methyl-1H-1,2,4-triazol-3-yl)methyl)-1H-pyrazol-4-yl)acrylamide], for which the IC50 was greater than 0.2 µM in assay [1] (pre-incubated for 4 hours), greater than 0.2 µM in assay [2] (setting [7]), greater than 200 nM in assay [3] (setting [8]) and less than 0.01 µM in assay [4] (setting [10]). For the same compound, the “FGFR1/FGFR4 IC50 ratio” value in assay [4] (pre-incubated for 4 hours) is greater than 100. The “FGFR2/FGFR4 IC50 ratio” value in assay [4] (pre-incubated for 4 hours) is listed as greater than 100. Moreover, the “FGFR3/FGFR4 IC50 ratio” value in assay [4] (pre-incubated for 4 hours) is reported as greater than 100.
In the case of `C=CC(=O)Nc1cncc(-c2cc3c(cn2)CN(c2c(F)c(OC)cc(OC)c2F)C(=O)C32CC2)c1` [Example 3, N-(5-(2′-(2,6-difluoro-3,5-dimethoxyphenyl)-3′-oxo-2′,3′-dihydro-1′H-spiro[cyclopropane-1,4′-[2,7]naphthyridine]-6′-yl)pyridin-3-yl)acrylamide], the IC50 is 0.03 to 0.2 µM in assay [2]; 0.03 to 0.2 µM in assay [2] (setting [6]); 30 to 200 nM in assay [3] (setting [11]); 30 to 200 nM in assay [3] (setting [12]); less than 0.01 µM in assay [4] (setting [9]); less than 0.01 µM in assay [4] (setting [10]).
In the case of `C=CC(=O)Nc1cccc(-c2cc3c(cn2)CN(c2c(F)c(OC)cc(OC)c2F)C(=O)C32CC2)c1` [Example 1, N-{3-[2′-(2,6-difluoro-3,5-dimethoxyphenyl)-3′-oxo-2′,3′-dihydro-1′H-spiro[cyclopropane-1,4′-[2,7]naphthyridin]-6′-yl]phenyl}acrylamide], the IC50 in assay [3] (setting [11]) was 10 to 30 nM; in assay [3] (setting [12]) it was 10 to 30 nM; in assay [4] (setting [9]) it was less than 0.01 µM; in assay [4] (setting [10]), less than 0.01 µM.
As for `C=CC(=O)Nc1cnn(CC(=O)NC)c1-c1cc2c(cn1)CN(c1c(F)c(OC)cc(OC)c1F)C(=O)C21CC1` [Example 20, N-(5-(2′-(2,6-difluoro-3,5-dimethoxyphenyl)-3′-oxo-2′,3′-dihydro-1′H-spiro[cyclopropane-l,4′[2,7]naphthyridine]-6′-yl)-1-(2-(methylamino)-2-oxoethyl)-1H-pyrazol-4-yl)acrylamide], in assay [4] (pre-incubated for 4 hours), the “FGFR1/FGFR4 IC50 ratio” value is given as greater than 50, the “FGFR2/FGFR4 IC50 ratio” value was greater than 100 and the “FGFR3/FGFR4 IC50 ratio” value is reported as greater than 100.
Regarding `C=CC(=O)Nc1cc(-c2cc3c(cn2)CN(c2c(F)c(OC)cc(OC)c2F)C(=O)C32CC2)ccn1` [Example 4, N-(4-(2′-(2,6-difluoro-3,5-dimethoxyphenyl)-3′-oxo-2′,3′-dihydro-1′H-spiro[cyclopropane-1,4′-[2,7]naphthyridine]-6′-yl)pyridin-2-yl)acrylamide], the IC50 in assay [3] (setting [11]) and in assay [3] (setting [12]) was 10 to 30 nM in each case.
Consider `C=CC(=O)Nc1cc(-c2cc3c(cn2)CN(c2c(F)c(OC)cc(OC)c2F)C(=O)C32CC2)ccc1CO` [Example 13, N-(5-(2′-(2,6-difluoro-3,5-dimethoxyphenyl)-3′-oxo-2′,3′-dihydro-1′H-spiro[cyclopropane-1,4′-[2,7]naphthyridine]-6′-yl)-2-(hydroxymethyl)phenyl)acrylamide], for which the IC50 in assay [2] is 0.03 to 0.2 µM; in assay [2] (setting [6]) it was 0.03 to 0.2 µM; in assay [3] (setting [11]), 30 to 200 nM; in assay [3] (setting [12]), 30 to 200 nM; in assay [4] (setting [9]), less than 0.01 µM; in assay [4] (setting [10]), less than 0.01 µM.

The term IC50 denotes the concentration that inhibits the measured activity by half.
